The source of these data is ChEMBL document CHEMBL1275247, “Pharmacokinetics and safety of CXA-101, a new antipseudomonal cephalosporin, in healthy adult male and female subjects receiving single- and multiple-dose intravenous infusions” (Antimicrob Agents Chemother, 2010).

Data set [1] is described as follows: Tmax in healthy human at 1000 mg, iv administered as single dose as 1 hr iv infusion. The format is ADME, organism-based. The settings on record: in vivo.
Data set [2] is described as follows: Volume of distribution at steady state in healthy human at 250 mg, iv administered as single dose as 1 hr iv infusion. The format is ADME, organism-based. The settings on record: in vivo.
Data set [3] can be described thus: Mean residence time in healthy human at 1500 mg, iv administered as 1 hr infusion every 12 hrs for 10 days measured on day 1. The format is ADME, organism-based. The following applies: in vivo.
Data set [4] can be described thus: Renal clearance in healthy human at 500 mg, iv administered as 1 hr infusion every 8 hrs for 10 days measured on day 1. The format is ADME, organism-based, Kidney. The settings on record: in vivo, read-out: CL_renal.
The subject of data set [5] is Homo sapiens. The data set can be described thus: Toxicity in healthy human assessed as occurrence of abdominal pain at 1000 mg, iv administered as single dose as 1 hr iv infusion. The format is organism-based, Abdomen. The following applies: in vivo.
A short description of data set [6]: Clearance in healthy human at 250 mg, iv administered as single dose as 1 hr iv infusion. The format is ADME, organism-based. The settings on record: in vivo.
Data set [7] can be described thus: Cmax in healthy human at 1000 mg, iv administered as 1 hr infusion every 8 hrs for 10 days measured on day 1. The format is ADME, organism-based. More on the design: dose 1000 mg, route intravenous. The following applies: in vivo.
Data set [8] can be described thus: Half-life in plasma of healthy human 250 mg administered as single ascending dose, iv for 1 hr infusion. The format is ADME, organism-based.
Data set [9] is described as follows: AUC (0 to infinity) in healthy human at 1000 mg, iv administered as single dose as 1 hr iv infusion. The format is ADME, organism-based. The following applies: plasma. More on the design: dose 1000 mg, route intravenous, time infinity.
Data set [10] can be described thus: AUC (0 to infinity) in healthy human at 250 mg, iv administered as single dose as 1 hr iv infusion. The following applies: plasma. The format is ADME, organism-based. The arrangement: dose 250 mg, route intravenous, time infinity.
Data set [11] can be described thus: Half-life in plasma of healthy human 2000 mg administered as single ascending dose, iv for 1 hr infusion. The format is ADME, organism-based.
Data set [12] in a line: Mean residence time in healthy human at 250 mg, iv administered as single dose as 1 hr iv infusion. The format is ADME, organism-based. The following applies: in vivo.
Data set [13] in a line: Mean residence time in healthy human at 1000 mg, iv administered as 1 hr infusion every 8 hrs for 10 days measured on day 10. The format is ADME, organism-based. The settings on record: in vivo.
Data set [14] is described as follows: Renal clearance in healthy human at 1500 mg, iv administered as single dose as 1 hr iv infusion. The format is ADME, organism-based, Kidney. The settings on record: in vivo, read-out: CL_renal.
Data set [15] in a line: Half-life in plasma of healthy human 1000 mg, iv administered as 1 hr infusion every 8 hrs for 10 days measured on day 10. The format is ADME, organism-based.

A word on the Tmax: it is the time at which the peak concentration occurs. A word on the Vd: it is a proportionality between amount in the body and measured concentration, not a real space. A low value points to confinement near the circulation. As a reminder, the MRT is the average time that molecules of a dose stay in the body. The term clearance denotes the rate of elimination divided by the concentration. A lower clearance goes with inefficient removal. Broadly, the Cmax is the highest concentration seen after dosing. In general, half-life refers to the time needed for the level to fall by half in the phase considered. A lower half-life goes with rapid decline. In general, AUC(0-inf) refers to the area under the concentration-time curve extrapolated to infinity. A higher AUC(0-inf) goes with high exposure. With `Cn1c(N)c(NC(=O)NCCN)c[n+]1CC1=C(C(=O)O)N2C(=O)[C@@H](NC(=O)/C(=N\OC(C)(C)C(=O)[O-])c3nsc(N)n3)[C@H]2SC1` [CEFTOLOZANE], the Tmax in data set [1] came out at 1.05 h. Also, in data set [2], the Vd was determined as 13.1 L. The MRT in data set [3] was found to be 2.64 h; in data set [12], 2.09 h; in [13], 2.45 h. The CL renal in data set [4] stood at 78.4 mL/min. Besides, the Activity result in data set [5] was “Non-toxic”. Moreover, the clearance in data set [6] was found to be 104 mL/min. Further, the peak level in data set [7] (Cmax) was 52.8 µg/mL. Besides, the half-life in data set [8] was 1.86 h; in [11] it was 2.45 h; in [15], 2.69 h. Further, the results for the AUC(0-inf) in data set [9] and in data set [10] were 152000 ng·h/mL and 40100 ng·h/mL, respectively. Further, the CL renal at 1 h in data set [14] was 96.2 mL/min.
